In article PMC10254852, “Design, Synthesis and Anticancer Evaluation of Nitroimidazole Radiosensitisers” (Molecules, 2023):
Converted amounts (≈) assume the structure as drawn. Read-outs that look alike come from different tables or passages of the source.

How the values were obtained:
[1] = Stability in αMEM culture medium (HPLC after 24 h); assay type: physicochemical; details: after 24 h incubation at 37 °C
Description: The stability of the same solutions after 24 h incubation at 37 °C was measured by HPLC analysis.

FaDu cells = experiment: In vitro cytotoxicity, 4 h exposure oxic/anoxic, 5-day regrowth, sulforhodamine B; assay type: cell-based; details: for IC50: Homo sapiens, 4 h exposure, mean ± SEM; for HCR: IC50(oxic)/IC50(anoxic)
Excerpt: (§1) This allowed derivation of hypoxia cytotoxicity ratios (HCR) as IC50(oxic)/IC50(anoxic) in an HCT116 subclone HCT116/54C and two HNSCC cell lines, FaDu and UT-SCC-74B (Table 2).
(§2) HCT116/54C is an HCT116 subline that originated from a mixed culture with UT-SCC-54C cells, which was supplied alongside UT-SCC-74B by Prof. Bradly Wouters (University Health Network, Toronto, ON, Canada). HCT116/54C and UT-SCC-74B cells were passaged in minimum essential media (MEM, ThermoFisher Scientific, Waltham, MA, USA) with 10% foetal calf serum (FCS, Moregate Biotech, Hamilton, New Zealand), 4.5 mg/mL D-glucose (Sigma-Aldrich, St. Louis, MO, USA) and 20 mM HEPES (Sigma-Aldrich). FaDu cells were sourced from American Type Culture Collection and cultured in αMEM (ThermoFisher Scientific) with 10% FCS. All cell lines were confirmed mycoplasma-free by PlasmoTest (InvivoGen, San Diego, CA, USA) and were derived from STR-authenticated cryopreserved stocks. Log-phase cells were seeded into 96-well plates at 800 cells/well for HCT116/54C and 1500 cells/well for FaDu. […] After drug washout, cells were grown and stained as for the oxic IC50 assays. The hypoxic cytotoxicity ratio HCR was determined as HCR = IC50(oxic)/IC50(anoxic).

HCT116/54C cells [2] = experiment: In vitro radiosensitisation under anoxia, clonogenic survival; assay type: cell-based, human; details: compound 1 mM, radiation dose for 1% survival/radiation dose for 1% survival with compound, mean ± SEM
Description: Next, we evaluated in vitro radiosensitisation by using a representative subset of nitroimidazole compounds in HCT116/54C cells with a clonogenic survival endpoint. Radiosensitisation was determined by treating cells under anoxia with a range of radiation doses alone and with compounds at equimolar doses (1 mM). Sensitiser enhancement ratios (SER) were calculated as the ratio of radiation dose required for 1% clonogenic survival alone or with compound (Table 3).
Cells were seeded onto 96-well plates at 10^5 cells per well and allowed to attach for 2 h. […] The plates were irradiated (Eldorado 78 ^60Co teletherapy unit, ~2 Gy/min) with 15 Gy under anoxia at room temperature for SR experiments. A metal wedge placed on the top of the metal chamber was used to achieve a graduated radiation dose across the plate, varying from 7 to 29 Gy, calibrated by Fricke dosimetry with ammonium thiocyanate as previously described for SER experiments. The control plate (compound alone, no radiation) was left inside the anaerobic chamber at room temperature during the irradiation period. After treatment, the cells were trypsinized and suspended in usual media + 1% penicillin-streptomycin (ThermoFisher Scientific), and 10-fold serial dilutions were plated for clonogenic survival. After 10 days, plates were stained with methylene blue (2 g/L in EtOH/H2O, 1:1 v/v) and colonies with more than 50 cells were counted. The surviving fraction (SF) was determined as: SF = PE(irradiated)/PE(control) where the plating efficiency (PE) = (No. of colonies)/(No. of cells plated). SF was plotted against radiation dose. Survival ratios (SR) were calculated: SR = (cell survival with radiation)/(cell survival with drug + radiation). Sensitizer enhancement ratios (SER) were calculated: SER = (radiation dose for 1% survival without compound)/(radiation dose for 1% survival with compound).

HCT116/54C cells [3] = experiment: In vitro cytotoxicity, 4 h exposure oxic/anoxic, 5-day regrowth, sulforhodamine B; assay type: cell-based, human; details: HCT116/54C; for HCR: IC50(oxic)/IC50(anoxic); for IC50: Homo sapiens, 4 h exposure, mean ± SEM, n = 3–4
Excerpt: as §1, §2

[4] = Solubility in αMEM culture medium (HPLC of saturated solutions); assay type: physicochemical; details: αMEM culture medium with 5% foetal calf serum and 1% DMSO, plasma or biological fluid, kinetic from dmso stock, α-MEM culture medium containing 5% foetal calf serum, 37 °C
UT-SCC-74B cells = experiment: In vitro cytotoxicity, 4 h exposure oxic/anoxic, 5-day regrowth, sulforhodamine B; assay type: cell-based, human; details: for IC50: Homo sapiens, 4 h exposure, mean ± SEM; for HCR: IC50(oxic)/IC50(anoxic)
Excerpt: as §1, §2

HCT116/54C tumours = experiment: Tumour radiosensitisation: ex vivo clonogenic assay; assay type: in vivo, NIH-III mice
Description: (§3) Specific pathogen-free six- to eight-week-old female NIH-III mice, bred in the Vernon Jansen Unit, University of Auckland, were used for animal experiments. Animals had ad libitum access to food and water and were maintained in microisolator cages on a 12 h light/dark cycle. All treatments were administered by i.v. injection at a dose of 2.2 mmol/kg and injection volume of 10 mL/kg. Compounds 2, 34 and 38 were administered as solutions in saline containing 1% DMSO or for 9–12 as solutions in saline containing 2 molar equivalents of NaHCO3. Control animals received an i.v. injection of saline at 10 mL/kg. All animal experiments were conducted under the auspices of the University of Auckland Animal Ethics Committee (approval 1781).
(§4) Compounds were evaluated for in vivo radiosensitisation of hypoxic cells in HCT116/54C and UT-SCC-74B human tumour xenografts using clonogenic survival as an endpoint, using previously report methods. Tumours were grown subcutaneously on the flanks of NIH-III mice by injecting 5 × 10^6 HCT116/54C cells or UT-SCC-74B cells. Once tumours reached a volume of approximately 250 mm^3, mice were randomly assigned to 4 treatment groups and treated with: (A) vehicle control, (B) 10 Gy RAD only, (C) sensitiser only, or (D) sensitiser given before 10 Gy RAD. Drugs were administered as a single i.v. dose at 2.2 mmol/kg. […] Tumours were excised 18 h after treatment, and tumour cells were dissociated enzymatically and plated to determine the number of surviving (clonogenic) cells per gram of tumour tissue. SF and SR were calculated as described above. Statistical significance of drug effects was tested using one-way ANOVA with Sidak tests for multiple comparisons vs. radiation alone (Table 5).

UT-SCC-74B tumours = experiment: as above; assay type: in vivo, NIH-III mice
Description: as §3, §4

[5] = test system: HCT116/54C tumour xenografts; experiment: Tumour growth inhibition in combination with radiation; assay type: in vivo, NIH-III mice; details: HCT116/54C tumours, fractionated radiation, p < 0.05
Description: as §3
Compounds were evaluated for their ability to inhibit tumour growth in combination with a single dose of radiation (10 Gy) in HCT116/54C or UT-SCC-74B tumour xenografts on the backs of NIH-III mice. In addition, a fractionated radiation schedule (5 Gy on Days 1, 7 and 14) was explored in HCT116/54C tumour xenografts. Mice were randomly assigned to 4 treatment groups and treated with: (A) vehicle control, (B) 10 Gy RAD only, (C) sensitiser only, or (D) sensitiser given 10 min before 10 Gy RAD. Drugs were administered by i.v. injection at 2.2 mmol/kg either as a single dose or three doses on Days 1, 7 and 14 in the fractionated study. Treatment commenced when the average tumour size reached approximately 250 mm^3, and tumour size was measured until study endpoint. Mice were placed in a custom-built lead-shielded jig that allowed irradiation of the whole tumour but shielded the mouse from radiation. Survival analysis represented the time taken for tumours to increase in relative tumour volume by 4× from the start of treatment (RTV^4). The significance of differences in activity between the groups was assessed by log-rank with Holm–Sidak multiple comparison analysis.

[6] = parameters: method as in PMID 29253343; details: NIH-III mice, 2.2 mmol/kg i.v., cited from earlier work
[7] = anoxic, n = 3–4, read-out: IC50 Anoxic
[8] = oxic, n = 3–4, read-out: IC50 Oxic
[9] = 2.2 mmol/kg i.v. 5 min prior to 10 Gy radiation, surviving fraction after radiation/surviving fraction after drug + radiation
[10] = 2.2 mmol/kg i.v. + 10 Gy, one-way ANOVA

| SMILES | % Stability in αMEM [1] [%] | IC50 (FaDu cells; [7]) [mM] | IC50 (FaDu cells; [8]) [mM] | HCR (FaDu cells) | SER at 1 mM (HCT116/54C cells [2]) | HCR (HCT116/54C cells [3]) | IC50 (HCT116/54C cells [3]; anoxic, read-out: IC50 Anoxic) [mM] | IC50 (HCT116/54C cells [3]; oxic, read-out: IC50 Oxic) [mM] | solubility [4] [mM] | melting point [°C] | IC50 (UT-SCC-74B cells; [7]) [mM] | IC50 (UT-SCC-74B cells; [8]) [mM] | HCR (UT-SCC-74B cells) | further results |
| --- | --- | --- | --- | --- | --- | --- | --- | --- | --- | --- | --- | --- | --- | --- |
| O=[N+]([O-])c1nccn1CS(=O)(=O)NC(CO)C(O)CO (stereo not shown) [Compound 14, 1-(2-Nitro-1H-imidazol-1-yl)-N-(1,3,4-trihydroxybutan-2-yl)methanesulfonamide] | 98.5 | 7.9 ± 1.1 | 5.3 ± 1.1 | 0.67 | 1.00 ± 0.00 | 1.3 | 12.6 ± 0.5 | 16.4 ± 3 | 95.8 (≈ 29.7 mg/mL) | 128 to 131 | – | – | – | – |
| O=[N+]([O-])c1nccn1CCNS(=O)(=O)CCO [Compound 17, 2-Hydroxy-N-(2-(2-nitro-1H-imidazol-1-yl)ethyl)ethane-1-sulfonamide] | 100.0 | 2.8 ± 0.6 | > 18 | >6.4 | 1.35 ± 0.02 | >5.3 | 3.2 ± 0.2 | > 17 | > 101 | 124 to 127 | 2.9 ± 0.5 | > 20 | >6.8 | – |
| O=[N+]([O-])c1cncn1CCS(=O)(=O)NCCN1CCOCC1 [Compound 16, N-(2-Morpholinoethyl)-2-(5-nitro-1H-imidazol-1-yl)ethane-1-sulfonamide] | 99.9 | 6.1 ± 0.8 | > 16 | >2.6 | 1.31 ± 0.01 | 1.0 | 12.9 ± 0.9 | 12.8 ± 1.5 | 83 (≈ 27.7 mg/mL) | – | 10.3 ± 2.6 | 14.1 ± 2.1 | 1.4 | – |
| O=[N+]([O-])c1nccn1CS(=O)(=O)NCC(O)CO (stereo not shown) [Compound 13, N-(2,3-Dihydroxypropyl)-1-(2-nitro-1H-imidazol-1-yl)methanesulfonamide] | 99.3 | 4.3 ± 0.3 | 8.7 ± 1.1 | 2.0 | 1.00 ± 0.00 | 3.5 | 4.1 ± 0.1 | 14.5 ± 2.9 | 110 (≈ 30.8 mg/mL) | 127 to 129 | 2.6 ± 0.1 | 10.3 ± 1.7 | 4.0 | – |
| O=[N+]([O-])c1nccn1CCS(=O)(=O)NCC(O)CO (stereo not shown) [Compound 15, N-(2,3-Dihydroxypropyl)-2-(2-nitro-1H-imidazol-1-yl)ethane-1-sulfonamide] | 99.9 | 7.3 ± 0.9 | > 25 | >3.4 | – | >1.9 | 12.8 ± 4.4 | > 25 | 84.3 (≈ 24.8 mg/mL) | 120 to 123 | – | – | – | – |
| O=C(Cn1ccnc1[N+](=O)[O-])NCCO [Compound 2, etanidazole, reference compound] | – | 1.5 ± 0.3 | > 20 | >13.3 | 1.18 ± 0.00 | >14.8 | 1.7 ± 0.2 | > 25 | – | – | – | – | – | Sensitisation Ratio (HCT116/54C tumours; [9]): 3.34; enhancement of tumour killing of radiotherapy (RAD vs drug + RAD) (HCT116/54C tumours; [10]): significantly enhanced the tumour killing of radiotherapy; Sensitisation Ratio (UT-SCC-74B tumours; [9]): 8.94; enhancement of tumour cell killing by radiotherapy (RAD vs drug + RAD) (UT-SCC-74B tumours; [10]): significantly enhanced tumour cell killing by radiotherapy; single agent cell kill (UT-SCC-74B tumours; drug alone 2.2 mmol/kg i.v., relative to untreated tumours): 55.9 ± 1.1%; survival (time to RTV^4) vs radiation alone [5]: significantly increased survival compared to radiation alone; AUC [6]: 1820 µM·h; T1/2 [6]: 1.05 h; Cmax ([6]; read-out: Plasma Cmax): 3640 µM |
